Source: the OligoGym collection
Where “and” joins values, the source holds several entries; their conditions need not be identical. Equal entries are not always repeated. HELM strings list units from the 5' end as sugar, base in round brackets, then linkage (d deoxyribose, r ribose, m 2'-O-methyl, p phosphodiester). Methylation of C is not given here. [moe] = 2'-O-(2-methoxyethyl) (MOE); [cEt] = constrained ethyl (cEt); [sp] = phosphorothioate linkage

Biological target: HBV
Conditions: ASO

In the case of “RNA1{[moe](A)[sp].[cEt](C)[sp].[cEt](T)[sp].d(G)[sp].d(A)[sp].d(A)[sp].d(C)[sp].d(A)[sp].d(A)[sp].d(A)[sp].d(T)[sp].d(G)[sp].d(G)[sp].[cEt](C)[sp].[cEt](A)[sp].[moe](C)}$$$$V2.0”, the target mRNA inhibition (HepG2, 0.07 µM) is reported as 67% and 64%.
With “RNA1{[moe](A)[sp].[cEt](C)[sp].[cEt](T)[sp].d(G)[sp].d(G)[sp].d(A)[sp].d(G)[sp].d(C)[sp].d(C)[sp].d(A)[sp].d(C)[sp].d(C)[sp].d(A)[sp].[cEt](G)[sp].[cEt](C)[sp].[moe](A)}$$$$V2.0” the target mRNA inhibition (HepG2, 0.07 µM) was 67% and 75%.
In the case of “RNA1{[moe](A)[sp].[cEt](G)[sp].[cEt](G)[sp].d(C)[sp].d(A)[sp].d(T)[sp].d(A)[sp].d(G)[sp].d(C)[sp].d(A)[sp].d(G)[sp].d(C)[sp].d(A)[sp].[cEt](G)[sp].[cEt](G)[sp].[moe](A)}$$$$V2.0”, the target mRNA inhibition (HepG2, 0.07 µM) is reported as 72% and 70%.
In the case of “RNA1{[moe](A)[sp].[cEt](G)[sp].d(A)[sp].d(A)[sp].d(G)[sp].d(T)[sp].d(C)[sp].d(C)[sp].d(A)[sp].d(C)[sp].d(C)[sp].d(A)[sp].[cEt](C)[sp].[moe](G)[sp].[cEt](A)[sp].[moe](G)}$$$$V2.0”, the target mRNA inhibition (HepG2, 0.07 µM) is reported as 55% and 37%.
With “RNA1{[moe](A)[sp].[cEt](G)[sp].d(G)[sp].d(T)[sp].d(G)[sp].d(A)[sp].d(A)[sp].d(G)[sp].d(C)[sp].d(G)[sp].d(A)[sp].d(A)[sp].[cEt](G)[sp].[moe](T)[sp].[cEt](G)[sp].[moe](C)}$$$$V2.0” the target mRNA inhibition (HepG2, 0.0092593 µM) was 12%, the target mRNA inhibition (HepG2, 0.0277778 µM) was 36% and the target mRNA inhibition (HepG2, 0.07 µM) was 78% and 85%. For the same substance, the target mRNA inhibition (HepG2, 0.0833333 µM) was 67% and the target mRNA inhibition (HepG2, 0.25 µM) was 80%.
In the case of “RNA1{[moe](A)[sp].[moe](A)[sp].[moe](C)[sp].[moe](C)[sp].[moe](A)[sp].[moe](C)[sp].d(T)[sp].d(G)[sp].d(A)[sp].d(A)[sp].d(C)[sp].d(A)[sp].d(A)[sp].d(A)[sp].d(T)[sp].[moe](G)[sp].[moe](G)}$$$$V2.0”, the target mRNA inhibition (HepG2, 0.07 µM) is reported as 60% and 45%.
In the case of “RNA1{[moe](A)[sp].[moe](A)[sp].[moe](C)[sp].[moe](T)[sp].[moe](G)[sp].[moe](G)[sp].d(A)[sp].d(G)[sp].d(C)[sp].d(C)[sp].d(A)[sp].d(C)[sp].d(C)[sp].d(A)[sp].d(G)[sp].[moe](C)[sp].[moe](A)}$$$$V2.0”, the target mRNA inhibition (HepG2, 0.07 µM) is reported as 70% and 50%.
“RNA1{[moe](A)[sp].[moe](A)[sp].[moe](C)[sp].[moe](T)[sp].[moe](G)[sp].d(G)[sp].d(A)[sp].d(G)[sp].d(C)[sp].d(C)[sp].d(A)[sp].d(C)[sp].d(C)[sp].d(A)[sp].[moe](G)[sp].[moe](C)[sp].[moe](A)}$$$$V2.0” was tested, and the target mRNA inhibition (HepG2, 0.07 µM) was 31% and 37%.
For “RNA1{[moe](A)[sp].[moe](A)[sp].[moe](C)[sp].[moe](T)[sp].d(G)[sp].d(G)[sp].d(A)[sp].d(G)[sp].d(C)[sp].d(C)[sp].d(A)[sp].d(C)[sp].d(C)[sp].[moe](A)[sp].[moe](G)[sp].[moe](C)[sp].[moe](A)}$$$$V2.0”, the target mRNA inhibition (HepG2, 0.07 µM) was 64% and 58%.
For “RNA1{[moe](A)[sp].[moe](A)[sp].[moe](C)[sp].d(C)[sp].d(A)[sp].d(C)[sp].d(T)[sp].d(G)[sp].d(A)[sp].d(A)[sp].d(C)[sp].d(A)[sp].[moe](A)[sp].[moe](A)[sp].[moe](T)[sp].[moe](G)[sp].[moe](G)}$$$$V2.0”, the target mRNA inhibition (HepG2, 0.07 µM) was 57% and 51%.
“RNA1{[moe](A)[sp].[moe](A)[sp].[moe](C)[sp].d(C)[sp].d(A)[sp].d(C)[sp].d(T)[sp].d(G)[sp].d(A)[sp].d(A)[sp].d(C)[sp].d(A)[sp].[moe](A)[sp].[moe](A)[sp].[moe](T)[sp].[moe](G)}$$$$V2.0” was tested, and the target mRNA inhibition (HepG2, 0.07 µM) was 20% and 37%.
In the case of “RNA1{[moe](A)[sp].[moe](A)[sp].[moe](C)[sp].d(T)[sp].d(G)[sp].d(G)[sp].d(A)[sp].d(G)[sp].d(C)[sp].d(C)[sp].d(A)[sp].d(C)[sp].[moe](C)[sp].[moe](A)[sp].[moe](G)[sp].[moe](C)[sp].[moe](A)}$$$$V2.0”, the target mRNA inhibition (HepG2, 0.07 µM) is reported as 69% and 58%.
